In patent US10995099B2, “Compounds and their uses as ACC inhibitors” (NANJING RUIJIE PHARMATECH CO., LTD., priority 2017, dated 2021):
Read-outs that look alike come from different tables or passages of the source.

How the values were obtained:
ACC2 [1] = details: ACC2 isolated from rat, mouse, monkey and human; cited from earlier work
ACC1 [2] = details: ACC1 isolated from rat, mouse, monkey and human; cited from earlier work
MDA-MB-468 = assay: EC50 in MDA-MB-468; format: cell-based
HepG2 = assay: EC50 in HepG2; format: cell-based
ACC2 [3] = target: ACC2 (Homo sapiens (Human), UniProt O00763); assay: In vitro ACC inhibition assay (ADP-Glo), ACC2; format: biochemical
Protocol: (§1) Compounds of the present invention were evaluated in an in vitro ACC inhibition assay as described by Harwood, et al, 2003, the entirety of which is incorporated herein by reference.
(§2) In Vitro Acetyl-CoA Carboxylase (ACC) Inhibition Assay
(§3) An exemplary procedure for the in vitro ACC inhibition assay, which can be used to determine the inhibitory action of compounds of the invention toward either ACC1 or ACC2, follows. The ADP-Glo™ Kinase Assay kit from Promega was used. The ADP-Glo™ Kinase Assay is a luminescent ADP detection assay to measure enzymatic activity by quantifying the amount of ADP produced during an enzyme reaction. The assay is performed in two steps; first, after the enzyme reaction, an equal volume of ADP-Glo™ Reagent is added to terminate the reaction and deplete the remaining ATP. Second, the Kinase Detection Reagent is added to simultaneously convert ADP to ATP and allow the newly synthesized ATP to be measured using a luciferase/luciferin reaction. Luminescence can be correlated to ADP concentrations by using an ATP-to-ADP conversion curve. The detailed procedure is as follows. 50 μL of the compound being tested (600 uM in DMSO) was added to a 384-well dilution plate. The compound was diluted 1:3 in succession in DMSO for each row for 11 wells. 0.5 μL ACC2 working solution was added to 384-well white Optiplate assay plate. 0.5 μL diluted compound solution in each column from step 2 to assay plate, each row containing 2 replicates. […] The plates were incubated at room temperature for 15 minutes. 5 μL substrate working solution was added to each well to initiate reaction. Final ACC2 reaction concentrations consist of: 5 nM ACC2, 20 μM ATP, 20 μM acetyl-CoA, 12 mM NaHCO3, 0.01% Brij35, 2 mM DTT, 5% DMSO, test compound concentrations: 30 μM, 10 μM, 3.33 μM, 1.11 μM, 0.37 μM, 0.123 μM, 0.0411 μM, 0.0137 μM, 0.00457 μM, 0.00152 μM, and 0.00051 μM. Plates were incubated at room temperature for 60 minutes. 10 μL ADP glo reagent was added. Plates were incubated at room temperature for 40 minutes. 20 μL kinase detection reagent was added. Plates were incubated at room temperature for 40 minutes, then read on a Perkin Elmer EnVision 2104 plate reader for luminescence as Relative Light Units (RLU).
(§4) Data for each concentration, as well as the positive and negative controls were averaged, and the standard deviation calculated. Percent inhibition was calculated by the formula: 100×(average negative control-compound)/(average negative control-average positive control). The IC50 for each compound was calculated by fitting the data with a non-linear regress ion equation: Y=Bottom+(Top−Bottom)/(1+10((Log IC50−X* HillSlope)), where X is the log of compound concentration and Y is percent inhibition.

A549 = assay: EC50 in A549; format: cell-based
ACC1 [4] = target: ACC1 (Homo sapiens (Human), UniProt Q13085); assay: In vitro ACC inhibition assay (ADP-Glo), ACC1; format: biochemical
Protocol: as §1, §2, §3, §4

[5] = MDA-MB-468, read-out: EC50 (μM) MDA-MB-468
[6] = HepG2, read-out: EC50 (μM) HepG2
[7] = ND630 versus RJ compounds, read-out: EC50 (μM) ND630/RJ-cmps(%)
[8] = 5 nM ACC2, 20 μM ATP, 20 μM acetyl-CoA, read-out: IC50 (μM) ACC2
[9] = ND630 versus RJ compounds, isoform not given, read-out: IC50 (μM) ND630/RJ-cmps(%)

Chain of ACC2 (Homo sapiens (Human), UniProt O00763) (O00763 whole entry, species assumed): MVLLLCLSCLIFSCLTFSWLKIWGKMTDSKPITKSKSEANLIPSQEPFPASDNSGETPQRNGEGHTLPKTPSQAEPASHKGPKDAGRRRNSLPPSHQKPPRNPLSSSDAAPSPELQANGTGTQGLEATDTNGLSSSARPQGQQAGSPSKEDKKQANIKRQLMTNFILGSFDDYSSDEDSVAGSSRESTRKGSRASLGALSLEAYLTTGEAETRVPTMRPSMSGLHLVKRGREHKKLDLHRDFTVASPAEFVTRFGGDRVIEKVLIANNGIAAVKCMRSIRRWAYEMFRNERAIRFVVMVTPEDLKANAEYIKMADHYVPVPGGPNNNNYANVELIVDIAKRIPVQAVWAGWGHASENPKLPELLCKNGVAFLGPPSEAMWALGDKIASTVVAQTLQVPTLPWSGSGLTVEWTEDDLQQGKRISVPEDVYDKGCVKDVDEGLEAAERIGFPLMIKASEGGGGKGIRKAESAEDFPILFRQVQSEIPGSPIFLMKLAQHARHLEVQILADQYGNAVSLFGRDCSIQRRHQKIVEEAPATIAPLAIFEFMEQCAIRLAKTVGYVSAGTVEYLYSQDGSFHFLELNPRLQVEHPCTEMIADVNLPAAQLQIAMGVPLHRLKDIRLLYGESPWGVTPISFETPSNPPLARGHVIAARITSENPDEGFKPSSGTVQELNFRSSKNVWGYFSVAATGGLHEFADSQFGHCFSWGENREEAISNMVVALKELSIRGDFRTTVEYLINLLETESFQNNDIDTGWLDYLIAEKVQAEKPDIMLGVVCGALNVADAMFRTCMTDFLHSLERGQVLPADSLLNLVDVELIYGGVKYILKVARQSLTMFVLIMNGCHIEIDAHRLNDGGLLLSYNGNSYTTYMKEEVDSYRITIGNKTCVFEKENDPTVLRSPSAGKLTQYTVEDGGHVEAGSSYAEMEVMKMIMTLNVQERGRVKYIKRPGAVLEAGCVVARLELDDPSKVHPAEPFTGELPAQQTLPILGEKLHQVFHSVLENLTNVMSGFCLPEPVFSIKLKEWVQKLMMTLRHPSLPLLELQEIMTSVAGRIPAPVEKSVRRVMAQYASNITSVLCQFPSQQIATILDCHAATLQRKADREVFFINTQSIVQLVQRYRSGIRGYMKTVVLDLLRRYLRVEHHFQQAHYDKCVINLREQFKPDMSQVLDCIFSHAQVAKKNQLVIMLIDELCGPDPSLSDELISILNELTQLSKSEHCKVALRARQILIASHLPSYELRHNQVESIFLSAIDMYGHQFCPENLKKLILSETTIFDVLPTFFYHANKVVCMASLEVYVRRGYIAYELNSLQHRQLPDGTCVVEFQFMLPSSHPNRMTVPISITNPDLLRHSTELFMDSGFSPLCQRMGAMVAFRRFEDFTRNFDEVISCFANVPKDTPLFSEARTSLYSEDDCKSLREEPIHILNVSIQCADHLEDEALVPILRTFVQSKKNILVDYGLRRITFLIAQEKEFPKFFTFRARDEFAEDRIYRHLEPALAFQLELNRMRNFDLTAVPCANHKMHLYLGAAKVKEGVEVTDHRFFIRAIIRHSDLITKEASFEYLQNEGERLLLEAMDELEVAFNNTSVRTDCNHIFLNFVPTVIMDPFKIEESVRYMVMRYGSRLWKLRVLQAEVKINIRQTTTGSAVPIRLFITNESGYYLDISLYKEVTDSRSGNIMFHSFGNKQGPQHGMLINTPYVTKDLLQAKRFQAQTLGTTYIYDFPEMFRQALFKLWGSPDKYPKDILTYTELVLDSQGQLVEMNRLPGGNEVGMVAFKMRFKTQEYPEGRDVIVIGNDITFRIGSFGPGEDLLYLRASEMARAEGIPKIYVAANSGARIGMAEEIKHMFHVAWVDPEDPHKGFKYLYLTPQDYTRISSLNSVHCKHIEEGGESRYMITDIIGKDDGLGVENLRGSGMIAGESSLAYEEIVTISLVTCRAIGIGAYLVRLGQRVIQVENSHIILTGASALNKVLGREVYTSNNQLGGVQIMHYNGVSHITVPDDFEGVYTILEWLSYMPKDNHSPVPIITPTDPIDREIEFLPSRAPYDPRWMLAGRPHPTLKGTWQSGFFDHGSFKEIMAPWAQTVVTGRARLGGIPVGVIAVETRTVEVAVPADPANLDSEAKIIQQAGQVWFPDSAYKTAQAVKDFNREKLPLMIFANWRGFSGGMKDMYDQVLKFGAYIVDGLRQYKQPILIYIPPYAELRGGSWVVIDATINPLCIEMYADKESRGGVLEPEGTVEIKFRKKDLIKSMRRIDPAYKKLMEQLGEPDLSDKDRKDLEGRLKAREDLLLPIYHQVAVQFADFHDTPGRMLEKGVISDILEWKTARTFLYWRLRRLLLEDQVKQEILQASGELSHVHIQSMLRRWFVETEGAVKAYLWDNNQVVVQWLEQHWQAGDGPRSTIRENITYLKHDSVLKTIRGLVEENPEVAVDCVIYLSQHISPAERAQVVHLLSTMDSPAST

EC50 (MDA-MB-468; [5]) [µM]	EC50 (HepG2; [6]) [µM]	EC50 (HepG2; [7]) [µM]	IC50 (ACC2 [3]; [8]) [µM]	IC50 (ACC2 [3]; [9]) [µM]	EC50 (A549; A549, read-out: EC50 (μM) A549) [µM]	IC50 (ACC1 [4]) [µM]	Compound	IC50 (ACC2 [1]) [nM]	IC50 (ACC1 [2]) [nM]	EC50 (MDA-MB-468; MDA-MB-468, reference, read-out: EC50 MDA-MB-468 (cisplatin)) [µM]	EC50 (A549; A549, reference, read-out: EC50 A549 (cisplatin)) [µM]
							O=C(c1c2ccccc2cc2ccccc12)N1CCC(N2CCC[C@@H](C(=O)N3CCOCC3)C2)CC1 [CP-640186]	60	60		
> 10	0.01 to 0.1	0.1 to 1	< 0.01	0.003 to 0.005	0.5 to 1	0.001 to 0.01	COc1ccccc1[C@H](Cn1c(=O)n(C2(C(=O)O)CC2)c(=O)c2c(C)c(Br)sc21)OC1CCOCC1 [Example 29]				
> 10	0.1 to 1	> 1	< 0.01	0.003 to 0.005	> 1		COc1ccccc1[C@H](Cn1c(=O)n(C2(C(=O)O)CCCC2)c(=O)c2c(C)c(Br)sc21)OC1CCOCC1 [Example 30]				
> 10	0.01 to 0.1	> 1	< 0.01	0.003 to 0.005	< 0.5	0.001 to 0.01	COc1ccccc1[C@H](Cn1c(=O)n(C2(C(=O)O)CCC2)c(=O)c2c(C)c(Br)sc21)OC1CCOCC1 [Example 31]				
1 to 10	0.01 to 0.1	> 1	< 0.01	0.003 to 0.005	< 0.5	< 0.001	COc1ccccc1[C@H](Cn1c(=O)n(C2(C(=O)O)CC2)c(=O)c2c(C)c(-c3ncco3)sc21)OC1CCOCC1 [Example 33]				
> 10	0.01 to 0.1	> 1	< 0.01	0.003 to 0.005	0.5 to 1	0.001 to 0.01	COc1ccccc1C(Cn1c(=O)n(C2(C(=O)O)CCCC2)c(=O)c2c(C)c(-c3ncco3)sc21)OC1CCOCC1 (stereo not drawn) [Example 36]				
> 10	0.01 to 0.1	> 1	< 0.01	0.005 to 0.01	< 0.5	< 0.001	COc1ccccc1C(Cn1c(=O)n(C2(C(=O)O)CCC2)c(=O)c2c(C)c(-c3ncco3)sc21)OC1CCOCC1 (stereo not drawn) [Example 37]				
> 10	0.01 to 0.1	> 1	< 0.01	0.005 to 0.01	< 0.5	< 0.001	COc1ccccc1[C@H](Cn1c(=O)n(C(C)(C)C(=O)O)c(=O)c2c(C)c(-c3ncco3)sc21)OC1CCOCC1 [Example 38]				
> 10	0.1 to 1	> 1	0.01 to 0.1	0.005 to 0.01	> 1		COc1ccccc1[C@H](Cn1c(=O)n(C2(C(=O)O)CC2)c(=O)c2c(C)c(Cl)sc21)OC1CCOCC1 [Example 40]				
1 to 10	> 1	> 1	< 0.01	0.005 to 0.01	< 0.5		COc1ccccc1[C@H](Cn1c(=O)n(C2(C(=O)NS(C)(=O)=O)CC2)c(=O)c2c(C)c(-c3ncco3)sc21)OC1CCOCC1 [Example 41]				
> 10	< 0.01	> 1			< 0.5		COc1ccccc1[C@H](Cn1c(=O)n(C(C)(C)C(N)=O)c(=O)c2c(C)c(-c3ncco3)sc21)OC1CCOCC1 [Example 42]				
	0.01 to 0.1	> 1	0.01 to 0.1	0.005 to 0.01		0.001 to 0.01	CNC(=O)C1(n2c(=O)c3c(C)c(-c4ncco4)sc3n(CC(OC3CCOCC3)c3ccccc3OC)c2=O)CC1 (stereo not drawn) [Example 47]				
	0.01 to 0.1	> 1	0.01 to 0.1	0.003 to 0.005		0.01 to 0.05	COc1ccccc1C(Cn1c(=O)n(C2(C(N)=O)CCC2)c(=O)c2c(C)c(Br)sc21)OC1CCOCC1 (stereo not drawn) [Example 51]				
	0.01 to 0.1	> 1	0.01 to 0.1	0.003 to 0.005		0.01 to 0.05	CNC(=O)C1(n2c(=O)c3c(C)c(Br)sc3n(CC(OC3CCOCC3)c3ccccc3OC)c2=O)CCC1 (stereo not drawn) [Example 52]				
	0.01 to 0.1	> 1	< 0.01	0.003 to 0.005		0.001 to 0.01	CNC(=O)C1(n2c(=O)c3c(C)c(-c4ncco4)sc3n(CC(OC3CCOCC3)c3ccccc3OC)c2=O)CCC1 (stereo not drawn) [Example 53]				
	< 0.01	> 1	0.01 to 0.1	0.005 to 0.01		0.001 to 0.01	COc1ccccc1C(Cn1c(=O)n(C2(C(N)=O)CCC2)c(=O)c2c(C)c(-c3ncco3)sc21)OC1CCOCC1 (stereo not drawn) [Example 54]				
	< 0.01	> 1	< 0.01	0.005 to 0.01		< 0.001	COc1ccccc1[C@H](Cn1c(=O)n(C2(C(=O)O)CCCC2)c(=O)c2c(C)c(-n3nccn3)sc21)OC1CCOCC1 [Example 55]				
	> 1		0.01 to 0.1	> 0.01		0.01 to 0.05	COc1ccccc1[C@H](Cn1c(=O)n(C2(C(N)=O)CC2)c(=O)c2c(C)c(Br)sc21)OC1CCOCC1 [Example 58]				
	0.1 to 1	> 1	< 0.01			0.01 to 0.05	COc1ccccc1[C@H](Cn1c(=O)n(C2(CC(=O)O)CC2)c(=O)c2c(C)c(-c3ncco3)sc21)OC1CCOCC1 [Example 61]				
	0.01 to 0.1	> 1	0.01 to 0.1			0.001 to 0.01	CNC(=O)CC1(n2c(=O)c3c(C)c(Br)sc3n(C[C@H](OC3CCOCC3)c3ccccc3OC)c2=O)CC1 [Example 62]				
	0.01 to 0.1	> 1	0.01 to 0.1			0.001 to 0.01	CNC(=O)CC1(n2c(=O)c3c(C)c(-c4ncco4)sc3n(C[C@H](OC3CCOCC3)c3ccccc3OC)c2=O)CC1 [Example 63]				
	< 0.01	> 1	< 0.01			0.001 to 0.01	COc1ccccc1[C@H](Cn1c(=O)n(C2(CC(N)=O)CC2)c(=O)c2c(C)c(-c3ncco3)sc21)OC1CCOCC1 [Example 64]				
	< 0.01	> 1	< 0.01	> 0.01		< 0.001	COc1ccccc1[C@H](Cn1c(=O)n(C2CCC2C(=O)O)c(=O)c2c(C)c(-c3ncco3)sc21)OC1CCOCC1 (stereo partly drawn) [Example 69]				
							N.N.[Cl][Pt][Cl] [cisplatin, reference compound]			0.68	1.28
